Experimental findings from patent US5821046A, “RNA oligonucleotides that bind HIV tat protein” (RiboTargets Holdings PLC, priority 1990, dated 1998) are described below.

Data set [1] has as its system tat protein. As to the kind of experiment: competition filter binding assay with chemically synthesized RNA (Table 4). More on the design: species or system HIV-1. Conditions: for IC50: 40 nM tat, read-out: D1/2. The protocol: Competition binding reactions (0.5ml) in TK buffer (50 mM Tris.HCl(pH7.9 at 0.5M and 22° G), 20 mM KCl ) included 10nM ^32 p labeled 59-mer (ca. 20,000 cpm) , 40nM tat protein, 5 ug/ml calf thymus DNA, 2 ug/ml yeast tRNA, 40 units of RNAsin (Promega) and varying concentrations (0-300 nM) of unlabeled competitor RNA (59-mer [SEQ ID NO: 1; ], 29-mer [SEQ ID NO: 12] or preannealed (slow cooled from 90° C.) 14-mer [SEQ ID NO: 14; nucleotides 2-15] and 17-mer [SEQ ID NO: 13; nucleotides 1- 17]). Binding was allowed to take place for 2-15 minutes on ice and each reaction was filtered through a twice prewashed (0.6 ml of ice-cold TK buffer) Millipore GS filter (2.5 cm disks, 0.22 um pore) and the filter washed with TK buffer (0.6 ml). Dried filters were counted by liquid scintillation. Results were plotted on a graph (FIG. 19) showing counts retained on the filter versus the concentration of competitor RNA added.
Competition binding reactions (0.5 ml) in TK buffer included 10 nM duplex formed from ^32 P-labeled and unlabeled 29-mer (ca. 20,000 cpm) or 10 nM duplex formed from ^32 P-labeled and unlabeled 17-mer annealed to unlabeled 14-mer, 40 nM tat protein, 5 ug/ml calf thymus DNA, 2 ug/ml yeast tRNA and varying concentrations (0-120 nM) of unlabeled competitor RNA (29-mer or modified 29-mer (FIG. 21), or 17-mer +14-mer duplex or modified 7-mer +14-mer duplex (22, 23 and 24) and were carried out as described above.
Competition binding reactions (0-5 ml) in TK buffer included 10 nM duplex formed from ^32 P-labelled (ca. 20,000 cpm) and unlabelled 18-mer [SEQ ID NO: 13] annealed to unlabelled 15-mer [SEQ ID NO: 14], 40 nM tat protein, 5 ug/ml calf thymus DNA, 2 ug/ml yeast TRNA and varying concentrations (0-120 nM) of unlabelled competitor RNA (59-mer [SEQ ID NO: 1] or 18-mer [SEQ ID NO: 13]+15-mer [SEQ ID NO: 14] duplex, or modified 18-mer [SEQ ID NO: […]

Data set [2] deals with tat protein. As to the kind of experiment: competition filter binding assay, bulge and stem mutant TAR RNAs (FIGS. 10-17, Tables 2 and 3). More on the design: species or system HIV-1. Conditions: 20 nM TAR RNA, read-out: D1/2. The text has this:
The graphs shown in FIGS. 10 to 17 illustrate competition for tat binding between TAR RNA and various mutant TAR RNA sequences. In FIGS. 10 and 11 the region unpaired residues at positions 23, 24, 25, 23 being U, is shown to be essential for tat FIGS. 12, 13, 14, 15, 16 and 17 the base stem immediately adjacent to the U-rich bulge be required for efficient tat binding, with there being a requirement for a binding pair at residues 22 and 40 on one side of the bulge, and the base pair G26 - C39 on the other side of the bulge.
In Tables 2 and 3, D1/2 values for various mutant TAR RNA-L sequences are given along with the results of transactivation experiments in which the altered TAR RNA sequences were introduced into the CAT reporter plasmid D5-3-3. TAR RNA sequences which bind poorly are poor competitors and show increased values for D1/2.
Competitor RNA was produced by transcription as described in the method ---or FIG. 7. Binding reactions (500ul) contained 20 nM TAR RNA, 20,000 dpm ^32 P- labeled TAR RNA, 0.5 ug calf thymus DNA, 0.2 ug yeast tRNA, 40 Units RNAsin (Promega), 50 mM Tris-HCl pH7.5, 20 mM KCl in a final volume of 500 ul. […] The binding reaction mixtures were then filtered through pre-washed nitrocellulose filters (Millipore 0.45 u pore size) and the radioactivity retained on the filters assayed by liquid scintillation counting of the dried filters.

Regarding “HIV-1 TAR (UUU): full length HIV-1 TAR RNA of 59 residues prepared by transcription, wild type, UUU bulge (GGGUCUCUCUGGUUAGACCAGAUUUGAGCCUGGGAGCUCUCUGGCUAACUAGGGAACCC; unmodified RNA) [reference compound]”, the “Krel (59-mer)” value in data set [1] (32P-end labelled 18-mer annealed to 15-mer) and in data set [1] (32P-labeled 59-mer transcript 10 nM) was 1.0 throughout. The IC50 in data set [1] (32P-end labelled 18-mer annealed to 15-mer 10 nM, competitor 0-120 nM) was found to be 18 nM; in data set [1] (32P-labeled 59-mer transcript 10 nM, competitor 0-300 nM), 40 nM; in data set [2] (Table 2, mutations in the U-rich bulge) it was 90 nM; in data set [2] (Table 3, mutations in the stem surrounding the U-rich bulge) it was 90 nM. Besides, in data set [1] (relative to 14 +17 duplex, 32P-end labelled 18-mer annealed to 15-mer), the “Krel (29 or 14 +17)” value is 2.8.
